Measurements from patent US20260109707A1, “HETEROBIFUNCTIONAL COMPOUNDS AND METHODS OF TREATING DISEASE” (Halda Therapeutics OpCo. Inc., priority 2022, published 2026).
Like-named read-outs stand apart in the source and are kept apart here.

Key:
[1] = test system: T-Rex 293 cell line SC3 cells having increased expression of androgen receptor protein due to exposure to doxycycline; test: Cellular growth inhibition assay, T-Rex 293 SC3 cells with doxycycline (CellTiter-Glo, 72 hours); format: cell-based; details: T-Rex 293 SC3 cells with increased androgen receptor expression due to doxycycline (10 ng/mL)
Method in brief: (§1)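 Growth inhibition is measured in an inducible AR-expressing T-Rex 293 clone, SC3, cultured with or without 10 ng/mL doxycycline in hormone-depleted medium. Test compounds are applied for 72 hours. GI50 values derive from CellTiter-Glo 2.0 signal fitted by four-parameter regression.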

[2] = test system: T-Rex 293 cell line SC3 cells lacking increased expression of androgen receptor protein; test: Cellular growth inhibition assay, T-Rex 293 SC3 cells without doxycycline (CellTiter-Glo, 72 hours); format: cell-based; details: T-Rex 293 cell line SC3 cells not exposed to doxycycline (lacking increased androgen receptor expression)
Method in brief: as §1

VCaP cells = test: Cellular growth inhibition assay for VCaP cells (CellTiter-Glo, 72 hours); format: cell-based, human
Method in brief: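 Luminescent viability signal after 72 h of compound exposure gave GI50 values by four-parameter nonlinear regression. Compounds were added in 0.5% DMSO to cells plated 24 h earlier at 5000/well in DMEM containing 10% FBS.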

T47D cells = test: Cellular growth inhibition assay for T47D cells (CellTiter-Glo, 72 hours); format: cell-based, human; details: 72 hours treatment
Method in brief: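 Growth inhibition as GI50, fitted with four parameters to CellTiter-Glo luminescence after 72 h of compound exposure (0.5% DMSO). Cells were T47D, grown in insulin-supplemented (0.2 units/mL) DMEM with 10% FBS and treated one day post-seeding.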

SMILES | GI50 (VCaP cells; Homo sapiens, VCaP, 72 h) [nM] | GI50 (T47D cells; Homo sapiens, T47D, 72 h) [nM] | GI50 (VCaP cells) [nM] | GI50 (T47D cells) [nM] | GI50 ([1]; 72 h) [nM] | GI50 ([2]; 72 h) [nM] | GI50 [1] [nM] | GI50 [2] [nM]
Cc1sc2c(c1C)C(c1ccc([C@H]3C[C@@H]([C@H]4CCCN(c5ccc(C(=O)N[C@H]6CC[C@H](Oc7ccc(C#N)c(Cl)c7)CC6)nn5)C4)C3)cc1)=N[C@@H](Cc1ncco1)c1nnc(C)n1-2 [I-376] | < 500 | < 500 |  |  | < 500 | < 500 |  | 
Cc1sc2c(c1C)C(c1ccc(O[C@H]3CC[C@@]4(CCCN(c5ccc(C(=O)N[C@H]6CC[C@H](Oc7ccc(C#N)c(Cl)c7)CC6)nn5)C4)C3)cc1)=N[C@@H](Cc1ncco1)c1nnc(C)n1-2 [I-96] | < 500 | < 500 |  |  | < 500 | < 500 |  | 
Cc1sc2c(c1C)C(c1ccc(CCOC3CCN(c4ccc(C(=O)N[C@H]5CC[C@H](Oc6ccc(C#N)c(Cl)c6)CC5)nn4)CC3)cc1)=NC(Cc1ncco1)c1nnc(C)n1-2 (some centres unmarked) [I-110] | < 500 | < 500 |  |  | < 500 | > 3000 |  | 
CCNC(=O)C[C@@H]1N=C(c2ccc(OCCN(C)c3ccc(C(=O)N[C@H]4CC[C@H](Oc5ccc(C#N)c(Cl)c5)CC4)nn3)cc2)c2c(sc(C)c2C)-n2c(C)nnc21 [I-49] | < 500 | 500 to 1500 |  |  | < 500 | 500 to 1500 |  | 
Cc1sc2c(c1C)C(c1ccc(C#C[C@H]3C[C@]4(CCCN(c5ccc(C(=O)N[C@H]6CC[C@H](Oc7ccc(C#N)c(Cl)c7)CC6)nn5)C4)C3)cc1)=N[C@@H](Cc1ncco1)c1nnc(C)n1-2 [I-234] | < 500 | < 500 |  |  | < 500 | < 500 |  | 
Cc1sc2c(c1C)C(c1ccc(CC3CN([C@H]4CCN(c5ccc(C(=O)N[C@H]6CC[C@H](Oc7ccc(C#N)c(Cl)c7)CC6)nn5)C4)C3)cc1)=N[C@@H](Cc1ncco1)c1nnc(C)n1-2 [I-116] | < 500 | < 500 |  |  | < 500 | < 500 |  | 
Cc1sc2c(c1C)C(c1ccc([C@H]3C[C@@H](C[C@@H]4CCCN(c5ccc(C(=O)N[C@H]6CC[C@H](Oc7ccc(C#N)c(Cl)c7)CC6)nn5)C4)C3)cc1)=N[C@@H](Cc1ncco1)c1nnc(C)n1-2 [I-355] | 1500 to 3000 | 1500 to 3000 |  |  | > 3000 | > 3000 |  | 
Cc1sc2c(c1C)C(c1ccc(N3CC(C4CC5(C4)CN(c4ccc(C(=O)N[C@H]6CC[C@H](Oc7ccc(C#N)c(Cl)c7)CC6)nn4)C5)C3)cc1)=N[C@@H](Cc1ncco1)c1nnc(C)n1-2 [I-387] | < 500 | < 500 |  |  | < 500 | < 500 |  | 
Cc1sc2c(c1C)C(c1ccc(C[C@H]3CCC4CN(c5ccc(C(=O)N[C@H]6CC[C@H](Oc7ccc(C#N)c(Cl)c7)CC6)nn5)CCN4C3)cc1)=N[C@H](Cc1ncco1)c1nnc(C)n1-2 (some centres unmarked) [I-260] | < 500 | < 500 |  |  | < 500 | < 500 |  | 
Cc1sc2c(c1C)C(c1ccc([C@H]3C[C@@H](C4CC5(CCN(c6ccc(C(=O)N[C@H]7CC[C@H](Oc8ccc(C#N)c(Cl)c8)CC7)nn6)CC5)C4)C3)cc1)=N[C@H](Cc1ncco1)c1nnc(C)n1-2 [I-382] | 500 to 1500 | < 500 |  |  | < 500 | > 3000 |  | 
Cc1sc2c(c1C)C(c1ccc([C@H]3C[C@@H]([C@@H]4CCCN(c5ccc(C(=O)N[C@H]6CC[C@H](Oc7ccc(C#N)c(Cl)c7)CC6)nn5)C4)C3)cc1)=N[C@@H](Cc1ncco1)c1nnc(C)n1-2 [I-374] | > 3000 | > 3000 |  |  | > 3000 | > 3000 |  | 

Continued, in another order:

GI50 (VCaP cells; Homo sapiens, VCaP, 72 h) [nM] | GI50 (T47D cells; Homo sapiens, T47D, 72 h) [nM] | GI50 (VCaP cells) [nM] | GI50 (T47D cells) [nM] | SMILES | GI50 ([1]; 72 h) [nM] | GI50 ([2]; 72 h) [nM] | GI50 [1] [nM] | GI50 [2] [nM]
< 500 | < 500 |  |  | Cc1sc2c(c1C)C(c1ccc(CC(=O)NCCc3ccc(C(=O)N[C@H]4CC[C@H](Oc5ccc(C#N)c(Cl)c5)CC4)nn3)cc1)=N[C@@H](Cc1ncco1)c1nnc(C)n1-2 [I-317] | < 500 | 500 to 1500 |  | 
< 500 | < 500 |  |  | Cc1sc2c(c1C)C(c1ccc([C@H]3C[C@H](C4CC5(CCN(c6ccc(C(=O)N[C@H]7CC[C@H](Oc8ccc(C#N)c(Cl)c8)CC7)nn6)CC5)C4)C3)cc1)=N[C@H](Cc1ncco1)c1nnc(C)n1-2 [I-383] | < 500 | > 3000 |  | 
< 500 | < 500 |  |  | Cc1sc2c(c1C)C(c1ccc(OC[C@H]3C[C@]4(CCCN(c5ccc(C(=O)N[C@H]6CC[C@H](Oc7ccc(C#N)c(Cl)c7)CC6)nn5)C4)C3)nc1)=N[C@@H](Cc1ncco1)c1nnc(C)n1-2 [I-262] | < 500 | > 3000 |  | 
> 3000 | 1500 to 3000 |  |  | Cc1sc2c(c1C)C(c1ccc(CCO[C@@H]3CCCN(c4ccc(C(=O)N[C@H]5CC[C@H](Oc6ccc(C#N)c(Cl)c6)CC5)nn4)C3)cc1)=N[C@@H](C)c1nnc(C)n1-2 [I-324] | < 500 | > 3000 |  | 
< 500 | < 500 |  |  | Cc1sc2c(c1C)C(c1ccc(CC3CC(C4CCCN(c5ccc(C(=O)N[C@H]6CC[C@H](Oc7ccc(C#N)c(Cl)c7)CC6)nn5)C4)C3)cc1)=N[C@@H](Cc1ncco1)c1nnc(C)n1-2 (some centres unmarked) [I-122] | < 500 | < 500 |  | 
> 3000 | 1500 to 3000 |  |  | Cc1sc2c(c1C)C(c1ccc(C[C@H]3C[C@H](C4CCCN(c5ccc(C(=O)N[C@H]6CC[C@H](Oc7ccc(C#N)c(Cl)c7)CC6)nn5)C4)C3)cc1)=N[C@@H](Cc1ncco1)c1nnc(C)n1-2 (some centres unmarked) [I-121] | 1500 to 3000 | > 3000 |  | 
< 500 | < 500 |  |  | Cc1sc2c(c1C)C(c1ccc(OC3CN(C4CCN(c5ccc(C(=O)N[C@H]6CC[C@H](Oc7ccc(C#N)c(Cl)c7)CC6)nn5)C4)C3)cc1)=N[C@@H](Cc1ncco1)c1nnc(C)n1-2 (some centres unmarked) [I-101] | < 500 | < 500 |  | 
< 500 | < 500 |  |  | Cc1sc2c(c1C)C(c1ccc(C=C3CC4(CCCN(c5ccc(C(=O)NC6CCC(Oc7ccc(C#N)c(Cl)c7)CC6)nn5)C4)C3)cc1)=N[C@@H](Cc1ncco1)c1nnc(C)n1-2 (stereo partly drawn) [I-142, N-[4-(3-chloro-4-cyano-phenoxy)cyclohexyl]-6-[2-[[4-[(9S)-4,5,13-trimethyl-9-(oxazol-2-ylmethyl)-3-thia-1,8,11,12-tetrazatricyclo[8.3.0.02,6]trideca-2(6),4,7,10,12-pentaen-7-yl]phenyl]methylene]-6-azaspiro[3.5]nonan-6-yl]pyridazine-3-carboxamide] | < 500 | < 500 |  | 
 |  | < 500 | < 500 | Cc1sc2c(c1C)C(c1ccc(N3CCC(CNC(=O)c4ccc(C(=O)N[C@H]5CC[C@H](Oc6ccc(C#N)c(Cl)c6)CC5)nn4)CC3)cc1)=N[C@@H](Cc1ncco1)c1nnc(C)n1-2 [I-232] |  |  | < 500 | 500 to 1500
< 500 | 500 to 1500 |  |  | Cc1sc2c(c1C)C(c1ccc(C(C)(C)CN3CC4(CCCN(c5ccc(C(=O)N[C@H]6CC[C@H](Oc7ccc(C#N)c(Cl)c7)CC6)nn5)C4)C3)cc1)=N[C@@H](Cc1ncco1)c1nnc(C)n1-2 [I-440] | < 500 | 500 to 1500 |  | 
< 500 | < 500 |  |  | Cc1sc2c(c1C)C(c1ccc([C@H]3C[C@@H](C4CCN(c5ccc(C(=O)N[C@H]6CC[C@H](Oc7ccc(C#N)c(Cl)c7)CC6)nn5)CC4)C3)cc1)=N[C@H](Cc1ncco1)c1nnc(C)n1-2 [I-372] | < 500 | < 500 |  | 
500 to 1500 | 500 to 1500 |  |  | Cc1sc2c(c1C)C(c1ccc(O[C@H]3C[C@@]4(CCCN(c5ccc(C(=O)N[C@H]6CC[C@H](Oc7ccc(C#N)c(Cl)c7)CC6)nn5)C4)C3)nc1)=N[C@@H](Cc1ncco1)c1nnc(C)n1-2 [I-220] | < 500 | > 3000 |  | 
